Data on 1 compound can be found in patent US20250345512A1, “COMBINATION SODIUM-GLUCOSE COTRANSPORTER INHIBITOR (SGLTI) INSULIN THERAPY FOR GLYCEMIC CONTROL IN TYPE 1 DIABETES” (University of Virginia Patent Foundation, priority 2022, published 2025).

The series concerns participants with T1D. Further details: species or system human. The note with it: in vivo. On the procedure: FIG. 2 presents a study analysis relative to baseline, control IQ (CIQ) (e.g., AID), and basal IQ (BIQ) (e.g., PLGS) implementation, according to investigation that is demonstrable of one or more embodiments herein. Therein, an experimental arm (G1, G2) providing an initial daily dose of 5 mg empagliflozin (EMPA) is depicted against a control arm (G3, G4) without such dosing (NOEMPA). Relative characteristics of the analysis are provided below.
Study Design: A single-center, randomized, controlled, unblinded, crossover clinical trial (NCT04201496) compared four parallel groups, two groups in the experimental arm (EMPA) with 5 mg daily empagliflozin as adjunctive therapy to PLGS or AID, and two groups in the control arm (NOEMPA) with no drug and with a PLGS system (Basal-IQ, Tandem Diabetes Care) or AID system (Control-IQ, Tandem Diabetes Care). […] A tolerance to the medication was assessed prior to the starting of the next study phase, including adherence to the protocol, ketone testing 2-4 times per day with monitored values not greater than 0.6 mmol/L on at least two successive occasions (the first testing upon waking in a fasted state), no adverse events relating to perineal infection or symptomatic postural hypotension, and no evidence of significant hypoglycemia <54 mg/dL, or any other listed adverse effects of the medication. […]

As for `OC[C@H]1O[C@@H](c2ccc(Cl)c(Cc3ccc(O[C@H]4CCOC4)cc3)c2)[C@H](O)[C@@H](O)[C@@H]1O` [CIQ-EMPA, empagliflozin], the “Difference (95% CI): Ketones” value was 0.02 mmol/L.
